From ChEMBL document CHEMBL1201862, “PubChem BioAssay data set” (2004) come the findings set out here.

Test [1] can be described thus: blockers of HIV-1 ZM109 envelope-driven cell-cell fusion – HeLa effector, CEM target cells, luciferase, cherry-pick, dose response (AID 652058).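 Also: luciferase signal from HIV-1 Env mediated cell-cell fusion of effector and target cells.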 In kind it is functional, cell-based.
Test [2] can be described thus: off-target signal loss in HeLa-CEM21 co-culture – HeLa F-luc CTL cells, cherry-picked, counter-screen for HIV-1 Env fusion inhibitor project, dose response (AID 652040).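 Also: potency for signal decrease marking cytotoxic or nonspecific inhibition.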 In kind it is functional, cell-based. A general note: Counterscreens check selectivity or assay interference.
Test [3] is described as follows: HIV-1 AD8 envelope cell-cell fusion blockers – cherry-pick, dose response (AID 652062).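 Also: luciferase signal from cell-cell fusion driven by HIV-1 clade B AD8 Env; potency is for inhibitors of fusion seen as a drop in luminescence.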 It is filed as functional, cell-based.
Test [4] can be described thus: blockers of HIV-1 envelope-mediated cell-cell fusion – cherry-pick, dose response (AID 652057). It is filed as functional, cell-based.
The target in test [5] is T1, Oxysterols receptor LXR-beta (Homo sapiens, UniProt P55055).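 Also: agonist activity at LXR measured by a cell-based luminescence readout across a dose range, run as a counterscreen for daf-12 agonists; HEK293 cells with Gal4-LXR fusion and GAL4-driven luciferase reporter; potency for activation of Gal4-LXR reporter so compounds are agonists.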
T1 sequence (P55055 whole entry): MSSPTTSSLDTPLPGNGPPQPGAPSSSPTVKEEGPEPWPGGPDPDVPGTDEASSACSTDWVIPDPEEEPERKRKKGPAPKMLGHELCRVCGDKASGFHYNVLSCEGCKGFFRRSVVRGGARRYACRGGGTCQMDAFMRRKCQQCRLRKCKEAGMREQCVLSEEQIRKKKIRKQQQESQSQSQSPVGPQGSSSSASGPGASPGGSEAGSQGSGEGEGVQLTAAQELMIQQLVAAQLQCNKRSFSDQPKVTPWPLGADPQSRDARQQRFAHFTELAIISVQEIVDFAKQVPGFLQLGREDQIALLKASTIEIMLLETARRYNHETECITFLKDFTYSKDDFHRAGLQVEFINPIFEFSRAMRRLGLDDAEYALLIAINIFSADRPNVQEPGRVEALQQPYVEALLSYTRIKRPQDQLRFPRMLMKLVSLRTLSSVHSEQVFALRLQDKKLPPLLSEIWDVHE
It is filed as functional, cell-based.

Test [6] deals with T2, Corticotropin-releasing factor receptor 2/Corticotropin-releasing factor-binding protein (Homo sapiens, UniProt P24387+Q13324).
T2 sequence (Q13324 whole entry): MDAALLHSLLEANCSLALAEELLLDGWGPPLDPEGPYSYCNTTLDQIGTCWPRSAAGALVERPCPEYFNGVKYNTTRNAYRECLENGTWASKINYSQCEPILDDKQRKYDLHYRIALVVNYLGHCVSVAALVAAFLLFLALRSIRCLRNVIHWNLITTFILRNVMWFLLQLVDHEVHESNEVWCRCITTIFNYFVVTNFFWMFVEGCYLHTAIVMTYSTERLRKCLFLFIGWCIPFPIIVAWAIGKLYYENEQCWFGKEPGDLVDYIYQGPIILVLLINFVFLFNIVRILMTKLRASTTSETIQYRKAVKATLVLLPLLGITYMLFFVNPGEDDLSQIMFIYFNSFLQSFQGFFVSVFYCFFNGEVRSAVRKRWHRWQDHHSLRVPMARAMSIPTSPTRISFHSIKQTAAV
T2 sequence (P24387 whole entry): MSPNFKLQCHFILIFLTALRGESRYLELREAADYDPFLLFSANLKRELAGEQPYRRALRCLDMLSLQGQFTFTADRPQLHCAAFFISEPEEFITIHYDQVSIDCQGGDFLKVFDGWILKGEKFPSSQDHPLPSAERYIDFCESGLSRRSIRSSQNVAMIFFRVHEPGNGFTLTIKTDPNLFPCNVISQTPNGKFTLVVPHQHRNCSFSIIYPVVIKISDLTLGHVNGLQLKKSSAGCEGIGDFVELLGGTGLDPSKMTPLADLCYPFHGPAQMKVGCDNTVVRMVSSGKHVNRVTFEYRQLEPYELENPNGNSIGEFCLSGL
Briefly: activators of CRF receptor 2 with binding protein – uHTS hits, confirmation (AID 602473). It is filed as functional. As to conditions: read-out: EC50_Mean.

Test [7] has as its target T2, Corticotropin-releasing factor receptor 2/Corticotropin-releasing factor-binding protein. Briefly: Dose Response confirmation of uHTS hits for small molecule antagonists of the CRF-binding protein and CRF-R2 receptor complex. In kind it is functional. Particulars: read-out: IC50_Mean.
The nature of test [8]: blockers of CRF-binding protein–CRF-R2 complex – cell-based, uHTS hits, 384-well, dose response (AID 651639). In kind it is functional, Homo sapiens. Particulars: read-out: IC50_Mean.
In test [9] the target is T3, Methionyl-tRNA synthetase, putative (Trypanosoma brucei brucei, UniProt Q38C91).
T3 sequence (Q38C91 whole entry): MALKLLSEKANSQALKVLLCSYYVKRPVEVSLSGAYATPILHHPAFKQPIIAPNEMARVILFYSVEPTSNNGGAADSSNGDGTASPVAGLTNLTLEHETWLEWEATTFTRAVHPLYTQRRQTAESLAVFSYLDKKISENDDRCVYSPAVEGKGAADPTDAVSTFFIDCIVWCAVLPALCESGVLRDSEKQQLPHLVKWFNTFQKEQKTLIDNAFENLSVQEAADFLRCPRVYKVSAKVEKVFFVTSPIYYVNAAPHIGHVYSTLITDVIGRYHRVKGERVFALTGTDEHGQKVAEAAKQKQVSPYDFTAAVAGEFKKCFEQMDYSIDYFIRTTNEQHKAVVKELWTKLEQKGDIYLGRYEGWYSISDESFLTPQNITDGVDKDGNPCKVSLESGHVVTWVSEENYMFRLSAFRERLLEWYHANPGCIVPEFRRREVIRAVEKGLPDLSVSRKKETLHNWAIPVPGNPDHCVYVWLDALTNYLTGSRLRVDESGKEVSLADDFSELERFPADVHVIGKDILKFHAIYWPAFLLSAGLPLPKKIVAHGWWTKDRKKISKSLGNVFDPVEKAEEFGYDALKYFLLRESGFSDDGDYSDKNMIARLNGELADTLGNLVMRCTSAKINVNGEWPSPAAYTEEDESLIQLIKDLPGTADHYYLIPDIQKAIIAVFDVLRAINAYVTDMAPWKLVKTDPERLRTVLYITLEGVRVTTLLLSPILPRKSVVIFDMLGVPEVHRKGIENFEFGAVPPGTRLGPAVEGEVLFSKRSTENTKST
In kind it is functional, Trypanosoma brucei brucei strain 927/4 GUTat10.1.

Test [10] has as its target T3, Methionyl-tRNA synthetase, putative. It is filed as functional, Trypanosoma brucei brucei strain 927/4 GUTat10.1. The source holds these as a separate data set.
Test [11] in a line: Counterscreen for inhibitors of Trypanosoma brucei methionyl tRNA synthetase (MetRS): Luminescence-based cell-based high throughput dose response assay to identify compounds that are cytotoxic to Jurkat human T lymphocyte cells. It is filed as functional.
Test [12] in a line: Luminescence Cell-Based Dose Response HTS to Identify Activators of Luciferase Translation or Activity in H4 […] Cells. [Related pubchem assays: 1829 (Project Summary), 1814 (Primary HTS)]. In kind it is functional.
The next test deals with H4. Briefly: Luminescence Cell-Based Dose Response HTS to Identify Activators of 5'UTR Stem-Loop Driven Prion Protein mRNA Translation in H4 Neuroglioblastoma Cells. [Related pubchem assays: 1829 (Project Summary), 1814 (Primary HTS)]. It is filed as functional. Particulars: Homo sapiens.
Test [13] in a line: Luminescence Cell-Based Dose Response HTS to Identify Inhibitors of 5'UTR Stem-Loop Driven Prion Protein mRNA Translation in H4 Neuroglioblastoma Cells. [Related pubchem assays: 1827 (Project Summary), 1813 (Primary HTS)]. It is filed as functional.
Test [14] can be described thus: luciferase reporter signal suppression in cells – H4 neuroglioma cells, luminescence, dose response (AID 1990). In kind it is functional, cell-based.
Test [15] is described as follows: alpha-synuclein stem-loop luciferase translation blockers – H4 neuroglioma cells, luminescence, confirmation (AID 1988). It is filed as functional, cell-based.
Test [16] is described as follows: HEK-293T viability loss after treatment – luminescence, T-cell screen hits, cytotoxicity control for TCR NF-kB inhibitor project, dose response (AID 489026).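 Also: cells exposed to compound about 14 hours before the viability readout.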 In kind it is functional, cell-based.
In test [17] the target is T4, Calpain-2 catalytic subunit (Sus scrofa, UniProt P43367).
T4 sequence (P43367 whole entry): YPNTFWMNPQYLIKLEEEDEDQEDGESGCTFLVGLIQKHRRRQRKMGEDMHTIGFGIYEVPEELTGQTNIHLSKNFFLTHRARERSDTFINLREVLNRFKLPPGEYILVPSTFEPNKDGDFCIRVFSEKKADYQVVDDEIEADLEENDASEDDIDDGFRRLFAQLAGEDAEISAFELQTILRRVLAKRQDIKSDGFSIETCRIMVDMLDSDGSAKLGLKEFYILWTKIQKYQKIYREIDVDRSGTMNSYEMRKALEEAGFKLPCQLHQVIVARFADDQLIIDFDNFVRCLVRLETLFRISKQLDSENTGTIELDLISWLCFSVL
Briefly: m-calpain protease blockers, concentration series – biochemical, fluorogenic peptide substrate, dose response (AID 1420). In kind it is functional.

For test [18], the target named is T5, Microphthalmia-associated transcription factor (Homo sapiens, UniProt O75030).
T5 sequence (O75030 whole entry): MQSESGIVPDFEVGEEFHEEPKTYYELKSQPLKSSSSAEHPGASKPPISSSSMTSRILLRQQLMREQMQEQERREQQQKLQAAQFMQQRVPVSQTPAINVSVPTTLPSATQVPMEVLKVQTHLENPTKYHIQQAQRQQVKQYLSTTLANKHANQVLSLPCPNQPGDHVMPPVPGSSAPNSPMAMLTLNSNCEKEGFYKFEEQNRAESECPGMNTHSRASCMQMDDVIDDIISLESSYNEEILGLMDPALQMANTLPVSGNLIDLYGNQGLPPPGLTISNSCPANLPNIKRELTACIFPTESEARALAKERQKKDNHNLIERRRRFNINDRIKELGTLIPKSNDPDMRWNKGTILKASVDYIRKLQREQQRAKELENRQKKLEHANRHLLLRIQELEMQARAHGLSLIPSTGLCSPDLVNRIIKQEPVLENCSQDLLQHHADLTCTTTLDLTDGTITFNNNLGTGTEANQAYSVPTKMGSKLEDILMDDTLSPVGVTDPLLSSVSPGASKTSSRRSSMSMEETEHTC
Briefly: reducers of TRPM1 reporter luminescence, concentration series – cell-based, SK-MEL-5, cherry-picked, set 3, MITF inhibitor project, dose response (AID 493073).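 Also: SK-MEL-5 melanoma cells with luciferase driven by the MITF target TRPM1 promoter.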 It is filed as functional.

Test [19] in a line: NIH-3T3 fibroblast cytotoxicity, dose response, cytotoxicity control, cell-based, fluorescence, Alamar Blue, secondary assay (AID 2327).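 Also: NIH-3T3 mouse fibroblasts cultured with fluconazole at 8 µg/mL.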 In kind it is functional. A general note: The colour change of resazurin is a common sign of viable cells or microbes.
Test [20] in a line: fluconazole-exposed Candida albicans growth modulators – fluorescence, retest, confirmation (AID 2467). It is filed as functional, cell-based.

Calls of active or inactive are those of the source.

With `O=C(NCC(=O)N1CCN(c2ncccn2)CC1)c1ccccc1OC(F)F`, the AC50 in [1] was 2.86 µM (active); in [2], 3.72 µM (active); in [3], 13.1 µM (active); in [4], 2.79 µM (active).
Regarding `COCCNC(=O)/C(C#N)=C/c1cc(C)n(C2CCCCC2)c1C`, in [5], the EC50 was > 67.5 µM (inactive).
On to `Cc1nc2ccccc2n1CCOc1ccc([N+](=O)[O-])cc1`, for which the EC50 in [6] was > 53 µM (inactive). The IC50 in [7] was < 0.368 µM (active); in [8], 0.972 µM (active).
For the compound `Cc1ccc(C)c(S(=O)(=O)C(C#N)c2nc3ccccc3nc2N2CCOCC2)c1` (stereo not given), the EC50 in test [6] was 35.8 µM (active). For the same compound, the results for the IC50 in [7] and in test [8] were 39.8 µM (active) and > 20 µM (inactive), respectively.
Turning to `O=C(NCC(O)COc1ccc([N+](=O)[O-])cc1)Nc1ccccc1` (stereo not given), the IC50 in [9] was 9.32 µM (active); in test [10], 15.6 µM (inactive); in test [11], 83.4 µM (inactive).
Turning to `C[C@H]1CN([C@@H](C)CO)C(=O)c2c(c3ccccc3n2C)-c2ccccc2CO[C@H]1CN(C)C(=O)Nc1cccc(F)c1`, the AC50 in test [1] is < 0.26 µM (active); in [2], 0.362 µM (active); in test [3] it was 2.88 µM (active); in test [4] it was < 0.26 µM (active).
On to `C/C(=N\c1ccccc1)c1sc2ccccc2c1O`, for which the values for the EC50 (in test [12]; in test [5]; in the test with H4) were 2.22 µM (active), > 67.6 µM (inactive) and 0.153 µM (active), respectively.
Turning to `N=C1c2ccccc2CN1CC(=O)c1ccccc1`, the results for the EC50 (in [12]; in [5]; with H4) were 10.6 µM (active), > 67.6 µM (inactive) and 8 µM (active), respectively.
Turning to `COc1ccccc1CN(C)C(=O)C(c1ccccc1)c1ccccc1`, the EC50 in [6] is > 53 µM (inactive). Also, the figures for the IC50 in test [7] and in test [8] were 8.1 µM (active) and > 20 µM (inactive), respectively.
For `COc1ccccc1-c1c[nH]c(C(O)c2cc(Cl)cc(Cl)c2)n1` (stereo not given), the IC50 is 2.38 µM (active) in [9], 3.26 µM (active) in test [10] and 83.3 µM (inactive) in test [11].
In the case of `O=C(COc1ccc(C(=O)c2ccccc2)cc1)NCc1ccc(F)cc1`, the values for the EC50 in test [13], in test [14] and in test [15] were 10 µM (active), > 120 µM (not active) and 7.25 µM (active), respectively. Moreover, the results for the IC50 in [16] and in test [17] were > 80 µM (inactive) and > 50 µM (not active), respectively.
With `Cc1ccc(-c2cc(-c3ccc(C)cc3)[n+](C)o2)cc1.[O-][Cl+3]([O-])([O-])[O-]`, in test [18], the AC50 is 8.24 µM (active). Further, the figures for the EC50 in [19] and in [20] were > 160 µM (inactive) and > 38 µM (not active), respectively.
For `O=C(CCC(=O)Nc1cccc([N+](=O)[O-])c1)N/N=C/c1cccs1`, the IC50 in [9] was 5.26 µM (active); in test [10] it was 8.34 µM (active); in [11], 83.3 µM (inactive).
For `Cc1ccc(C(c2nnnn2CS(=O)(=O)c2ccc(C)cc2)N2CCCC2)cc1` (stereo not given), the AC50 in [1] was 3.55 µM (active); in test [2], 3.97 µM (active); in test [3], 2.35 µM (active); in test [4], 3.22 µM (active).

The AC50 is the midpoint of the concentration-response curve, whichever way the signal moves.
